The values below come from US9333257B2, “FGFR1 antibodies and treatment of cancer” (Agency for Science, Technology and Research, priority 2011, dated 2016).

pIC50: −log10 of the molar value.

What all share (format): cell-based, human
In one assay the test system is hOS. Nature of the assay: Cell viability via GUAVA, fold change vs cells plated. Particulars: two day treatment. On the procedure:
(§1) Old media was first removed and 3 ml of fresh media added. IMBR1 and rabbit IgG were added to achieve desired dosage. PD166866 (Sigma-Aldrich, USA) and SU5402 (Merck, Germany) were dissolved in dimethyl sulfoxide (DMSO; Sigma-Aldrich, USA) and added to master mix of media to achieve desired concentration. Additional DMSO was added such that total volume of chemicals added was constant.
(§2) Cells were grown in 24-well plate with 500 μl of media at a seeding density of 20,000 cells/cm^2, except for MDA-MB-468 which were seeded at a density of 100,000 cells/cm^2. Each well of cells were then collected via trypsinization with 200 μl of trypsin-EDTA (Invitrogen, USA) and neutralized with 200 μl of media. 1 μl of GUAVA Viacount Flex dye (Guava Technologies, USA) was added to each well. Quantification of viable cells were performed as per manufacturer's instructions.
(§3) To determine the effect of inhibiting FGFR1 signaling on cell viability in osteosarcoma cells, Saos-2 and hOS were treated with varying concentrations of FGFR tyrosine kinase inhibitors PD166866 (Panek et al., 1998) and SU5402 (Mohammadi et al, 1997). The control groups of respective cell lines were treated with equivalent volume of DMSO, as DMSO is the vehicle for both chemical inhibitors. Cell viability was measured via GUAVA and fold change calculated to compare changes in number of cells after two day treatment and number of cells plated. A fold change greater than one indicated an increase in number of cells while a fold change less than one indicated a decrease in number of cells compared to number of cells plated.

Assay [1] concerns MG63 cells. Nature of the assay: Cell growth, viable cell count by GUAVA Viacount. To be noted: 48 hours; for repression of cell growth: 50 μM.
Description: The cells were seeded in triplicates at 20,000 cells/cm^2 in 24-well plates, except MDA-MB468 which was plated at 100,000 cells/cm^2. […] 48 hours after treatment, the viable cell numbers were counted using the GUAVA Viacount Program and used to plot the graph (FIG. 6). The ‘starting’ cell numbers which were seeded for the assay were also included. hFOB is the normal cell control for osteosarcoma cells, while MCF10A is the normal cell control for breast cancer cells.
We tested the effectiveness of these reagents to block the growth of MG63 using GUAVA Viacount system.
The effect of these antibodies on the growth of MG63 cells were examined by GUAVA EasyCyte flow cytometry system.
Rabbit IgG and mouse IgG were the vehicle control for IMB-R1 and IMB-R1 mAbs, respectively. The viable cells were counted by GUAVA Viacount system. The statistics was done by Student's t test.
For the next assay, the system named is Saos-2. The assay is described as follows: Cell viability via GUAVA, fold change vs cells plated. Particulars: two day treatment. On the procedure: as §1, §2, §3
To determine the effect of IMBR1 on cell viability, GUAVA was performed after two day treatment with varying amount of IMBR1 or rabbit IgG as control. Rabbit IgG was used as control as IMBR1 is raised in rabbit. Half maximal inhibitory constant (IC50) was then determined.

Assay [2] relates to MG63 cells. Nature of the assay: Annexin V-FITC / PI staining apoptosis assay. As to the method: Thus we treated MG63 with 1:250 dilution of IMB-R1 or equal volume of rabbit IgG for 24 hours and then stained the cells with Annexin V-FITC and Propidium Iodide (PI) (BD Biosciences). Annexin V binds to phosphatidylserine which is only present on the outer layer of cell membrane at the early stage of apoptosis. Therefore positive staining of Annexin V indicates early apoptosis. PI is unable to penetrate the intact cell membrane. Only when the membrane breaks down at the late stage of apoptosis, PI can enter and stain the cell. After staining, the cell population was analyzed by BD FACS Array system. The viable cells were negative of either Annexin V-FITC or PI staining, which was shown in Q3; the early apoptotic cells were positive of Annexin V-FITC but negative of PI staining, which was shown in Q4; the late apoptotic or dead cells were positive of both staining, which was shown in Q2. The percentage of positive cells in each population was plotted in the graphs.
We next examined whether FGF2 regulated cell apoptosis and IMB-R1 blocked its effect. MG63 cells were treated with IMB-R1 (1:250) 1 hour before FGF2 (20 ng/ml). 24 hours later, cells were harvested and stained with Annexin-PI. Thereafter, cells were analysed by flow cytometry (FIG. 11B). […]
Cells were treated with 25 μM U0126 for 24 hours before the apoptosis of the cells was analysed by Annexin-PI staining.

Assay [3] relates to MG63 cells. Nature of the assay: FGF2 stimulated MG63 cell growth (GUAVA). On the procedure:
MG63 cells were treated with 20 ng/ml FGF2, IMB-R1 (1:250 dilution), or pretreated with IMB-R11 hour before addition of FGF2. Cells without the above treatments were the control. After 2 days, the viable cell numbers were counted using GUAVA system as mentioned before.
Cells were first treated with increasing doses of U0126 for 48 hours. The viable cell numbers were then analysed by GUAVA system. Next, cells were treated with 20 ng/ml FGF2 in the presence or absence of the optimal dose of U0126 determined from the first assay, before the cell counting was performed.

A further assay concerns Caspase 3. The assay is described as follows: Caspase 3 activity assay (Biovision kit) in MG63. Particulars: 24 hours. On the procedure: We further examined the effect of IMB-R1 on Caspase 3 activity using an assay kit from Biovision. Caspase 3 is activated at the early stage of apoptosis, so it is used as a common marker of apoptosis. Staurosporine, known as the inducer of caspase 3 activity, was used in this assay as the positive control. We first treated MG63 cells with increasing dose of staurosporine for 24 hours to determine the working dose.
We next examined whether FGF2 regulated cell apoptosis and IMB-R1 blocked its effect. MG63 cells were treated with IMB-R1 (1:250) 1 hour before FGF2 (20 ng/ml). 24 hours later, cells were harvested and stained with Annexin-PI. Thereafter, cells were analysed by flow cytometry (FIG. 11B). The percentage of positive cells in each population was plotted in the graphs (FIG. 11C). We further examined the effect of IMB-R1 and FGF2 on Caspase 3 activity using the assay kit from Biovision. Caspase 3 is activated at the early stage of apoptosis, so it is used as a common marker of apoptosis. The dose of reagents and the time point chosen were same to those in Annexin-PI staining assay.

Consider `COc1cc(OC)cc(-c2cc3cnc(N)nc3nc2NC(=O)NC(C)(C)C)c1` [PD166866], for which the “fold change of cell number vs cells plated” value with hOS (10 μM) came out at 4.2; with hOS (100 μM) it was 0.7; in the assay on Saos-2 (10 μM) it was 1.7; with Saos-2 (100 μM) it was 0.4. The “repression of cell growth” value with MG63 cells [1] was ~50%.

Take `CCN(CC)CCCCNc1ncc2cc(-c3cc(OC)cc(OC)c3)c(NC(=O)NC(C)(C)C)nc2n1` [PD173074]: in the assay on MG63 cells [1] (Homo sapiens, MG-63, read-out: concentration able to induce 50% cell growth inhibition), the pIC50 is 4.60 to 5.00.

`Cc1c[nH]c(/C=C2\C(=O)Nc3ccccc32)c1CCC(=O)O` [SU5402]: the “fold change of cell number vs cells plated” value in the assay on hOS (10 μM) turned out to be 5.2; in the assay on hOS (100 μM), 0.6; in the assay on Saos-2 (10 μM), 2.14; with Saos-2 (100 μM) it was 0.9. In the assay with MG63 cells [1], the “repression of cell growth” value is listed as ~50%.

As for `N#CC(=C(/N)Sc1ccccc1N)/C(C#N)=C(\N)Sc1ccccc1N` [U0126], in the assay on MG63 cells [2] (25 μM, 24 hours (control 7.49%)), the cell apoptosis was ~100%. Besides, in the assay on MG63 cells [2] (Homo sapiens, MG-63, 24 h, read-out: viable cells), the viability at 25 µM is < 1%. Further, in the assay with MG63 cells [3] (25 μM U0126, 20 ng/ml FGF2), the “FGF2 stimulated cell growth” value was “completely suppressed”. The “cell number relative to cells without treatment” value in the assay on MG63 cells [1] (25 μM) is listed as ~50%.

Regarding `CN[C@@H]1C[C@H]2O[C@@](C)([C@@H]1OC)n1c3ccccc3c3c4c(c5c6ccccc6n2c5c31)C(=O)NC4` [staurosporine], in the assay on Caspase 3 (15 nM), the “Caspase 3 activation” value was “sufficient to activate Caspase 3”.

As for “FGF2: recombinant human FGF2 (R&D Systems), FGF ligand that activates FGFR1 signalling”, in the assay with Caspase 3 (FGF2 20 ng/ml alone), the “caspase 3 activity” value was “slightly decreased”. For the same compound, the “increase of cell proliferation” value in the assay with MG63 cells [3] (20 ng/ml FGF2, 2 days) is 1.9 folds.
